Data published in patent publication US3965257A, “Compositions and methods for the treatment of the symptoms of histamine induced allergic reactions” (Richardson-Merrell Inc., priority 1974, dated 1976).

Columns and labels:
[1] = tested on: wheals induced by intradermal injections of histamine; test: reduction by 50% of wheals induced by intradermal injections of histamine into guinea pigs; type: in vivo, guinea pig; details: Cavia porcellus, po, 1 h, orally administered one hour prior to the histamine injection, read-out: ED50 (amount required to reduce by 50% wheals induced by intradermal injections of histamine)
[2] = tested on: aerosol antigen induced bronchial spasms and death; test: prevention of aerosol antigen induced bronchial spasms and death in the guinea pig; type: in vivo; details: Cavia porcellus, po, orally, read-out: minimal amount required to prevent aerosol antigen induced bronchial spasms and death
From the text: The minimal amounts of the compounds of Examples 4,5,6 and 9 required to prevent aerosol antigen induced bronchial spasms and death in the quinea pig are respectively 1.0, 4.0, 1.0 and 4.0 milligrams per kilogram of body weight orally.

Row | SMILES | ED50 [1] | minimal effective dose [2]
1 | Cl.O=C(CCCN1CCC(C(O)(c2ccccc2)c2ccccc2)CC1)c1cccs1 [Example 4, 4-[4-(α -Hydroxy-α -phenylbenzyl)piperidino] -1-(2-thienyl)-butan-1-one hydrochloride] | 3.1 mg/kg | 1 mg/kg
2 | Cc1ccc(C(=O)CCCN2CCC(C(O)(c3ccccc3)c3ccccc3)CC2)cc1.Cl [Example 5, 4-[4-(α-Hydroxy-α-phenylbenzyl)piperidino] -4'-methylbutyrophenone hydrochloride] | 1.9 mg/kg | 4 mg/kg
3 | CC(C)(C)c1ccc(C(=O)CCCN2CCC(C(O)(c3ccccc3)c3ccccc3)CC2)cc1.Cl [Example 6, 4'-tert-Butyl-4-[4-(α-hydroxy-α-phenylbenzyl)piperidino] butyrophenone hydrochloride] | 1.8 mg/kg | 1 mg/kg
4 | O=C(CCCN1CCC(C(O)(c2ccccc2)c2ccccc2)CC1)c1ccc(N2CCCCC2)cc1 [Example 9, 4-[4-(α-Hydroxy-α-phenylbenzyl)piperidino]-4'-piperidinobutyrophenone] | 3.4 mg/kg | 4 mg/kg
